Test results: patent US11312718B2, “Formulations of (S)-3-(1-(9H-purin-6-ylamino)ethyl)-8-chloro-2-phenylisoquinolin-1(2H)-one” (Infinity Pharmaceuticals, Inc., priority 2011, dated 2022)
Structures can show the parent of a compound that is named as a salt. Where two headings read alike, the source gives them in different places.

What was measured:
[1] = Salt screen: solubility in water; type: physicochemical
Description: Salts of a compound of Formula (I) were formed with L-tartaric acid, p-toluenesulfonic acid, D-glucaronic acid, ethane-1,2-disulfonic acid (EDSA), 2-naphthalenesulfonic acid (NSA), hydrochloric acid (HCl) (mono and bis), hydrobromic acid (HBr), citric acid, naphthalene-1,5-disulfonic acid (NDSA), DL-mandelic acid, fumaric acid, sulfuric acid, maleic acid, methanesulfonic acid (MSA), benzenesulfonic acid (BSA), ethanesulfonic acid (ESA), L-malic acid, phosphoric acid, and aminoethanesulfonic acid (taurine).

[2] = Dynamic vapor sorption (DVS) / moisture sorption analysis; type: physicochemical; conditions: for hygroscopicity / moisture uptake at 60% RH / moisture uptake at 90% RH: DVS; for moisture uptake at 60% RH / moisture uptake at 90% RH: about 25° C.
Method: Compounds and polymorphs provided herein can be characterized by moisture sorption analysis. This analysis was performed using a Hiden IGAsorp Moisture Sorption instrument. Moisture sorption experiments were carried out at about 25° C. by performing an adsorption scan from about 40% to about 90% RH in steps of about 10% RH and a desorption scan from about […] to about 0% RH in steps of about −10% RH. A second adsorption scan from about 10% to about 40% RH was performed to determine the moisture uptake from a drying state to the starting humidity. Samples were allowed to equilibrate for about four hours at each point or until an asymptotic weight was reached. After the isothermal sorption scan, samples were dried for about one hour at elevated temperature (about 60° C.) to obtain the dry weight. XRPD analysis on the material following moisture sorption was performed to determine the solid form.
Dynamic vapor sorption (DVS) analysis was performed on polymorph Forms A, B, C, D, and E using the DVS instrument and parameters as described above. […] Hysteresis indicative of hemi-hydrate formation was observed.

[3] = Solubility of polymorph Forms (H2O, SGF); type: physicochemical
[4] = Thermal stability (60° C.); conditions: for Thermal stability (60° C.): after 1 week; for polymorph Form changes by XRPD: held at 60° C. for 10 days
Method: Forms A, B, C, D, and E were held at 60° C. for 10 days followed by analysis by XRPD. In each case, 8 mL vials were charged with approximately 20 mg of material, with the exception of Form B for which 10 mg of material was charged. Samples equilibrated in an oven for 10 days.

[5] = Grinding stability (mortar and pestle); type: physicochemical; conditions: for Form by XRPD after grinding: after both 2 and 5 minutes of grinding by hand; for Grinding (mortar & pestle): by hand, 2 and 5 min, XRPD
Method: Forms A, C, D, and E were subjected to grinding experiments performed using a mortar and pestle by hand. Samples were lightly grounded for 2 minutes then analyzed by XRPD. Material was then returned to the mortar and pestle and grounded for an additional 3 minutes, for a total of 5 minutes of grinding, and re-analyzed by XRPD.

[6] = Stability studies of packaged polymorph Forms (temperature and humidity storage); type: physicochemical; conditions: HPLC, Karl Fischer, XRPD
Description: Polymorphs Form A and Form C were subjected to stability studies where several samples of each given Form were packaged and subjected to the given temperature and humidity conditions as described in Table 10. At each timepoint, a sample for that study was opened and evaluated by HPLC for purity, Karl Fischer for moisture content, and XRPD for confirming the polymorph Form.

[7] = Hold in humidity chambers at 9% RH and 95% RH; type: physicochemical; conditions: after 1 week
[8] = Drying of Form A at 70° C.; type: physicochemical; conditions: Drying at 70° C. for six days
Method: 1. Procedure from CH2Cl2 and from IPA: Form C (1 g) was slurried in five volumes of dichloromethane. After holding for 15 hours, filtration, and drying, Form A was isolated in 82% yield. Scale-up was performed on a 20 g scale with a water-wet cake of Form C to yield Form A in 92% yield. […] Slurrying dry Form C in isopropyl alcohol using a similar method also yielded Form A.

[9] = Stability of the capsules in a container closure; type: physicochemical
Method: The stability of the capsules in a container closure was evaluated at long-term and accelerated conditions. Container closure conditions used were (i) 60-cc high density polyethylene (HDPE), wide mouth, round, white bottle; and (ii) child resistant 33-mm white plastic cap with a heat induction foil inner seal liner. The containers containing the capsules were subjected to the following conditions: (1) −20° C.±5° C.; (2) 5° C.±3° C.; (3) 25° C.±2° C., 60% RH±5% RH; (4) 40° C.±2° C., 75% RH±5% RH; (5) 25° C.±2° C., 60% RH±5% RH, open bottle; (6) 40° C.±2° C., 75% RH±5% RH, open bottle; and (7) 30° C.±2° C., 65% RH±5% RH. Samples of the capsule formulations were analyzed at certain time intervals. The API remained stable at 25° C.±2° C., 60% RH±5% RH and 40° C. 2° C., […]±5% RH for at least 6 months. The API remained stable for at least 6 month at −20° C. 5° C., 5° C. 3° C. when stored in induction-sealed HDPE bottles. The API was stable for at least 6 months at 25° C.±2° C., 60% RH±5% RH and 40° C.±2° C., 75% RH±5% RH in open HDPE bottles.

[10] = Pharmacokinetics, single oral dose; type: in vivo; conditions: both sexes, human, plasma, healthy adult subjects, fasting, range over doses
Method: A randomized, double-blind, placebo-controlled, single and repeat dose study was conducted to evaluate the pharmacokinetics (PK) of a compound of Formula (I) Form C polymorph when orally administered to healthy adult male and female subjects. Subjects received a single oral dose of a compound of Formula (I) Form C polymorph under fasting conditions at a dose of 1 mg, 2 mg, 5 mg, 10 mg, 20 mg, and 30 mg. Blood samples were collected for plasma analysis pre-dose, and at 0.5, 1, 1.5, 2, 3, 4, 6, 9, 12, 16, and 24 hours.

[11] = Pharmacokinetics, repeat oral dose; type: in vivo; conditions: both sexes, human, plasma; Day 14; repeat oral dosing 1, 2, 5, 10 mg (QD Days 1 and 14, BID Days 2 through 13); range over doses
Method: Repeat oral dose administration of a compound of Formula (I) Form C polymorph was administered once per day (QD) in the morning on Days 1 and 14 and twice daily (BID) on Days 2 through 13. Administration of the compound occurred after an overnight fast on Days 1 and 14. Blood samples were collected for plasma analysis on Day 14 following 1, 2, 5 and 10 mg repeat dosing. Blood samples were collected on Day 14 prior to dosing and at 0.5, 1, 1.5, 2, 3, 4, 6, 9, 12, 16 and 24 hours after administration to determine plasma concentrations of the compound of Formula (I) Form C polymorph. Doses of 1 mg, 2 mg, 5 mg, and 10 mg gave a Cmax value range of greater than 10 ng/mL to less than 1,000 ng/mL in a dose dependent manner. In addition doses of 1 mg, 2 mg, 5 mg, and 10 mg gave an AUCtau,ss value range of greater than 100 ng*h/mL to less than 2,500 ng*h/mL, in a dose dependent manner. For the BID regimens, the AUC over a 24 hour interval was obtained by multiplying AUCtau,ss by 2.

[12] = PBS at pH 7.4, 37° C., 24 hours, 5 μM; cited from earlier work
[13] = human plasma, 37° C., 5 μM; cited from earlier work

## C[C@H](Nc1ncnc2[nH]cnc12)c1cc2cccc(Cl)c2c(=O)n1-c1ccccc1 [Bis HCL]
[1]
  Solubility in water: 11800 µg/mL
[2]; 60% RH
  Moisture Sorption (wt % water): 60% RH: 9.9 wt % water
[2]; 90% RH
  Moisture Sorption (wt % water): 90% RH: 12.3 wt % water

## C[C@H](Nc1ncnc2[nH]cnc12)c1cc2cccc(Cl)c2c(=O)n1-c1ccccc1 [EDSA]
[1]
  Solubility in water: 9400 µg/mL
[2]; 60% RH
  Moisture Sorption (wt % water): 60% RH: 7.5 wt % water
[2]; 90% RH
  Moisture Sorption (wt % water): 90% RH: 28.1 wt % water

## C[C@H](Nc1ncnc2[nH]cnc12)c1cc2cccc(Cl)c2c(=O)n1-c1ccccc1 [Form A, (S)-3-(1-(9H-purin-6-ylamino)ethyl)-8-chloro-2-phenylisoquinolin-1(2H)-one]
[3]; H2O
  Solubility (mg/mL): 0.030 (H2O) mg/mL
[3]; SGF
  Solubility (mg/mL): 21.800 (SGF) mg/mL
[1]; listed as Free Form A
  Solubility in water: 30 µg/mL
[4]
  Thermal stability (60° C.): stable after 1
  polymorph Form changes by XRPD: No polymorph Form changes were observed
[5]
  Form by XRPD after grinding: remain consistent
  Grinding (mortar & pestle): remained Form
[6]; Double LDPE bags in fiberboard drum, 40° C. ± 2° C./75% RH ± 5% RH, 1, 2, 3, 6, and 12 months
  instability of the polymorphic Form: no indication of instability of the polymorphic Form
[2]; 60% RH, listed as Free Form A
  Moisture Sorption (wt % water): 60% RH: 0.7 wt % water
[2]; 90% RH, listed as Free Form A
  Moisture Sorption (wt % water): 90% RH: 2.6 wt % water
[2]; @ 60% RH
  DVS: 0.7% @ 60% RH
[2]; @ 90% RH
  DVS: 2.6% @ 90% RH
[2]
  hygroscopicity: slightly hygroscopic
[2]; 60% RH
  moisture uptake at 60% RH: 0.7 wt %
[2]; 90% RH
  moisture uptake at 90% RH: 2.6 wt %
[7]
  changes in Form: no changes in Form
[8]
  degradation in chemical or chiral purity: no degradation in chemical or chiral purity

## C[C@H](Nc1ncnc2[nH]cnc12)c1cc2cccc(Cl)c2c(=O)n1-c1ccccc1 [Form B, (S)-3-(1-(9H-purin-6-ylamino)ethyl)-8-chloro-2-phenylisoquinolin-1(2H)-one]
[4]
  Thermal stability (60° C.): stable after 1
  polymorph Form changes by XRPD: No polymorph Form changes were observed
[2]; @ 60% RH
  DVS: 1.0% @ 60% RH
[2]; @ 90% RH
  DVS: 1.7% @ 90% RH
[2]
  hygroscopicity: slightly hygroscopic
[2]; 60% RH
  moisture uptake at 60% RH: 1.0 wt %
[2]; 90% RH
  moisture uptake at 90% RH: 1.7 wt %

## C[C@H](Nc1ncnc2[nH]cnc12)c1cc2cccc(Cl)c2c(=O)n1-c1ccccc1 [Form C, (S)-3-(1-(9H-purin-6-ylamino)ethyl)-8-chloro-2-phenylisoquinolin-1(2H)-one]
[3]; H2O
  Solubility (mg/mL): 0.001 (H2O) mg/mL
[3]; SGF
  Solubility (mg/mL): 9.133 (SGF) mg/mL
[9]; capsules in HDPE bottle, 25° C.±2° C., 60% RH±5% RH and 40° C. 2° C., 45% RH±5% RH
  time the API remained stable: at least 6 months
[9]; capsules, 25° C.±2° C., 60% RH±5% RH and 40° C.±2° C., 75% RH±5% RH, open HDPE bottles
  time the API was stable: at least 6 months
[9]; capsules, −20° C. 5° C., 5° C. 3° C., induction-sealed HDPE bottles
  time the API remained stable: at least 6 month
[4]
  Thermal stability (60° C.): stable after 1
  polymorph Form changes by XRPD: No polymorph Form changes were observed
[5]
  Form by XRPD after grinding: remain consistent
  Grinding (mortar & pestle): remained Form
[6]; LDPE bags, foil or Mylar bag, HDPE drum, 5° C./60% RH, 25° C./60% RH, 40° C./75% RH, up to 9 months
  instability of the polymorphic Form: no indication of instability of the polymorphic Form
[10]; single oral dose 1, 2, 5, 10, 20, 30 mg
  Cmax: 10 to 1500 ng/mL
[10]; single oral dose 1 to 30 mg
  half-life: 3 to 10 h
[10]; single oral dose 1 to 30 mg, read-out: AUC0-24
  AUC(0-t): 100 to 4000 ng·h/mL
[2]; @ 60% RH
  DVS: 4.2% @ 60% RH
[2]; @ 90% RH
  DVS: 4.9% @ 90% RH
[2]
  hygroscopicity: moderately hygroscopic
[2]; 60% RH
  moisture uptake at 60% RH: 4.2%
[2]; 90% RH
  moisture uptake at 90% RH: 4.9%
[11]
  AUC: 100 to 2500 ng·h/mL
  Cmax at 14 days: 10 to 1000 ng/mL
[7]
  changes in Form: no changes in Form

## C[C@H](Nc1ncnc2[nH]cnc12)c1cc2cccc(Cl)c2c(=O)n1-c1ccccc1 [Form D, (S)-3-(1-(9H-purin-6-ylamino)ethyl)-8-chloro-2-phenylisoquinolin-1(2H)-one]
[4]
  Thermal stability (60° C.): stable after 1
  polymorph Form changes by XRPD: No polymorph Form changes were observed
[5]
  Grinding (mortar & pestle): amorphous
[2]; @ 60% RH
  DVS: 0.4% @ 60% RH
[2]; @ 90% RH
  DVS: 1.7% @ 90% RH
[2]
  hygroscopicity: slightly hygroscopic
[2]; 60% RH
  moisture uptake at 60% RH: 0.4 wt %
[2]; 90% RH
  moisture uptake at 90% RH: 1.7 wt %

## C[C@H](Nc1ncnc2[nH]cnc12)c1cc2cccc(Cl)c2c(=O)n1-c1ccccc1 [NDSA]
[1]
  Solubility in water: 300 µg/mL

## C[C@H](Nc1ncnc2[nH]cnc12)c1cc2cccc(Cl)c2c(=O)n1-c1ccccc1 [NSA]
[1]
  Solubility in water: 50 µg/mL
[2]; 60% RH
  Moisture Sorption (wt % water): 60% RH: 0.3 wt % water
[2]; 90% RH
  Moisture Sorption (wt % water): 90% RH: 0.7 wt % water

## O=C(O)CCCc1ccc(N(CCCl)CCCl)cc1 [chlorambucil]
[12]
  chemical stability: largely hydrolyzed

## CC(C)[N+](C)(CCOC(=O)C1c2ccccc2Oc2ccccc21)C(C)C [propantheline]
[13]
  plasma stability: intermediate plasma stability

## CCCOc1cc(N)ccc1C(=O)OCCN(CC)CC [propoxycaine]
[13]
  plasma stability: low plasma stability
